Literature values as cited in US9783526B2, “Control of hypoxia-inducible gene expression with oligooxopiperazine nonpeptidic helix mimetics” (New York University, priority 2012, dated 2017).

What was measured:
[1] = system: experimental animals; settings: in vivo
[2] = system: HIF-1α C-TAD and p300/CBP

CN1C(=O)[C@@]23C[C@]4([C@]56C[C@@]78SS[C@@](CO)(C(=O)N7[C@H]5Nc5ccccc56)N(C)C8=O)c5ccccc5N[C@@H]4N2C(=O)[C@]1(CO)SS3 [chaetocin]
adverse effects in experimental animals [1]: induced coagulative necrosis, anemia, and leukocytosis

CN1C(=O)[C@]2(Cc3cn([C@]45C[C@@]67SS[C@@](CO)(C(=O)N6[C@H]4Nc4ccccc45)N(C)C7=O)c4ccccc34)SS[C@@]1(CO)C(=O)N2C [chetomin]
inhibition of the interaction between HIF-1α C-TAD and p300/CBP [2]: inhibit the interaction
adverse effects in experimental animals [1]: induced coagulative necrosis, anemia, and leukocytosis
